Test results from paper PMC10888562 (International Journal of Molecular Sciences, 2024).
Read-outs that look alike come from different tables or passages of the source.

Columns and labels:
HT29 colon = system: HT29 colon; parameters: method as in PMID 36142383, PMID 37173934, PMID 36296713; details: cited from earlier work
H460 lung = system: H460 lung; parameters: method as in PMID 36142383, PMID 37173934, PMID 36296713; details: cited from earlier work
A2780 ovarian [1] = test: MTT cell viability assay (GI50), A2780; format: cell-based, human; details: for SCI: GI50 (MCF10A)/GI50 (A2780); for GI50: A2780 ovarian, MTT
MCF-7 breast = system: MCF-7 breast; parameters: method as in PMID 36142383, PMID 37173934, PMID 36296713; details: cited from earlier work
HT29 colon cells = test: TMRE mitochondrial membrane potential (MtMP) assay; format: cell-based, human; details: GI50 drug concentration (FCCP 20 μM)
Procedure: This was achieved by determining if the overproduction of ROS induced by these complexes impacts mitochondrial activity by altering MtMP. Briefly, there is evidence showing a strong correlation between increased levels of ROS and mitochondrial impairment. […] The MtMP changes recorded are measured as RFU. […] To investigate the MtMP changes in HT29 treated cells, a TMRE-MtMP Assay Kit (Abcam, Cambridge, MA, USA) was used, as previously described. In 96-well plates, 25,000 cells/mL of HT29 colon cells in DMEM were seeded. Cells were treated with a GI50 drug concentration for each complex. At 24, 48 or 72 h, cells were washed with PBS and stained with tetramethylrhodamine, ethyl ester (TMRE) (1 μM) and incubated for 30 min. TMRE was then removed, and cells were then re-washed with PBS (0.2% BSA), after which phenol red free media was added. The plates were directly scanned to measure fluorescence (expressed as RFU), using the Glo-Max®-Multimode microplate reader (Promega Corporation, Alexandra, VIC, Australia) at an excitation/emission of 549/575 nm. For the positive control, 20 μM carbonyl cyanide 4-(trifluoromethoxy) phenylhydrazone (FCCP)) was added to the cells and incubated for 10 min. The cells were washed with PBS (0.2% BSA) and stained with TMRE (1 μM) for 30 min; this was removed, and phenol red free media was added, and the final solution was scanned as mentioned above.

A431 skin = system: A431 skin; parameters: method as in PMID 36142383, PMID 37173934, PMID 36296713; details: cited from earlier work
Du145 prostate = system: Du145 prostate; parameters: method as in PMID 36142383, PMID 37173934, PMID 36296713; details: cited from earlier work
[2] = system: cisplatin-resistant ADDP ovarian variant; parameters: method as in PMID 36142383, PMID 37173934, PMID 36296713; details: cited from earlier work
A2780 ovarian [3] = system: A2780 ovarian; parameters: method as in PMID 36142383, PMID 37173934, PMID 36296713; details: cited from earlier work
BE2-C neuroblastoma = system: BE2-C neuroblastoma; parameters: method as in PMID 36142383, PMID 37173934, PMID 36296713; details: cited from earlier work
MIA pancreas [4] = test: MTT cell viability assay (GI50), MIA; format: cell-based, human; details: for SCI: GI50 (MCF10A)/GI50 (MIA); for GI50: MIA pancreas, MTT
[5] = system: multiple human cell lines; parameters: method as in PMID 36142383, PMID 37173934, PMID 36296713; details: average over all cell lines; cited from earlier work
SJ-G2 glioblastoma = system: SJ-G2 glioblastoma; parameters: method as in PMID 36142383, PMID 37173934, PMID 36296713; details: cited from earlier work
U87 glioblastoma = system: U87 glioblastoma; parameters: method as in PMID 36142383, PMID 37173934, PMID 36296713; details: cited from earlier work
MIA pancreas [6] = system: MIA pancreas; parameters: method as in PMID 36142383, PMID 37173934, PMID 36296713; details: cited from earlier work
[7] = system: non-tumour-derived MCF10A breast line; parameters: method as in PMID 36142383, PMID 37173934, PMID 36296713; details: cited from earlier work
[8] = Lipophilicity by analytical HPLC (log kw); format: physicochemical
Text: The order of complexes by increasing lipophilicity is P-5B3A < 5-5B3A < 56-5B3A (Table 2 and Figure S27). It can be deduced that increasing methylation on the heterocyclic ligand increased lipophilicity. This trend agrees with published data. The determined log kw values are consistent and within the range of the log kw values determined for similar complexes reported in the literature.
Lipophilicity measurements were completed via analytical HPLC, as previously reported.

Solubility in d.i.H2O = format: physicochemical; details: room temperature
Procedure: The solubility of P-5B3A, 5-5B3A and 56-5B3A was tested in d.i.H2O at room temperature. Small aliquots of d.i.H2O were titrated into an Eppendorf tube containing 1 mg of each complex until full dissolution. For every titration, each sample solution was vortexed and sonicated.

[9] = system: non-tumour-derived MCF10A breast line; details: for GI50: MCF10A non-tumour-derived breast, MTT
[10] = Stability in PBS monitored by analytical HPLC; format: physicochemical; details: PBS pH ~7.4, ~10 mM, 37 °C, one week, HPLC at 254 nm
Procedure: The stability of P-5B3A, 5-5B3A and 56-5B3A was monitored via analytical HPLC.
The stability of P-5B3A, 5-5B3A and 56-5B3A were measured at 254 nm. Each complex was incubated in aqueous phosphate-buffered saline (PBS) solution (pH ~7.4) (total sample concentration, ~10 mM) at 37 °C for one week. Analytical HPLC was utilised to monitor the experiments.

| Compound | SCI (A2780 ovarian [1]) | MtMP Changes (HT29 colon cells; 24 h, control 542 ± 4) [RFU] | MtMP Changes (HT29 colon cells; 48 h, control 507 ± 11) [RFU] | MtMP Changes (HT29 colon cells; 72 h, control 449 ± 10) [RFU] | SCI (MIA pancreas [4]) | log kw Values [8] | GI50 (A2780 ovarian [1]) [nM] | Solubility (Solubility in d.i.H2O) [mg/mL] | GI50 [9] [nM] | Stability [10] | GI50 (MIA pancreas [4]) [nM] | further results |
| --- | --- | --- | --- | --- | --- | --- | --- | --- | --- | --- | --- | --- |
| N.N.[Cl][Pt][Cl] [Cisplatin, cis-diammineplatinum(II) dichloride] | 5.20 | 232 ± 4 | 230 ± 4 | 192 ± 7 | 0.69 | – | – | – | – | – | – | GI50 (HT29 colon): 11.3 µM; GI50 (H460 lung): 900 ± 200 nM; GI50 (MCF-7 breast): 6.5 ± 0.8 µM; GI50 (A431 skin): 2400 ± 300 nM; GI50 (Du145 prostate): 1200 ± 100 nM; GI50 [2]: 28 µM; GI50 (A2780 ovarian [3]): 1000 ± 100 nM; GI50 (BE2-C neuroblastoma): 1900 ± 200 nM; GI50 [5]: 5.84 ± 0.61 µM; GI50 (SJ-G2 glioblastoma): 400 ± 100 nM; GI50 (U87 glioblastoma): 3.8 ± 1.1 µM; GI50 (MIA pancreas [6]): 7.5 ± 1.3 µM; GI50 [7]: 5.2 ± 0.52 µM |
| [Pt^IV(5,6-Me2phen)(SS-DACH)(5B3A)(OH)]^2+ [56-5B3A] | 0.18 | 321 ± 11 | 267 ± 8 | 148 ± 7 | 0.28 | 2.11 | 18 ± 6.1 | 4 | 3.3 ± 0.9 | adequately stable in aqueous solution for up to 1 week | 12 ± 3 | – |
| [Pt^IV(5-Mephen)(SS-DACH)(5B3A)(OH)]^2+ [5-5B3A] | 0.45 | 324 ± 9 | 280 ± 12 | 184 ± 4 | 0.61 | 1.91 | 42 ± 4 | 6 | 19 ± 1.5 | adequately stable in aqueous solution for up to 1 week | 31 ± 3 | – |
| [Pt^IV(phen)(SS-DACH)(5B3A)(OH)]^2+ [P-5B3A] | 0.60 | 332 ± 7 | 317 ± 7 | 263 ± 5 | 0.90 | 1.82 | 470 ± 18 | 7 | 280 ± 39 | adequately stable in aqueous solution for up to 1 week | 310 ± 26 | fold difference in cytotoxicity versus PHENSS [9]: 0.9 fold |
